Test results from patent publication US20200237717A1, “Treatment of Staphylococcal and Enterococcal Infections Using Substituted Nitrostyrene Compounds” (Opal Biosciences Limited, priority 2017, published 2020).
In brackets after ≈: the same amount, converted by molar mass. Where two headings read alike, the source gives them in different places.

Legend:
[1] = tested on: VISA MRSA isolates (n = 6); assay: MIC by BMD, MRSA isolates of VISA phenotype; type: cell-based; conditions: Staphylococcus aureus, VISA isolates (n = 6)
Description: (§1) One-hundred and three MRSA bacteraemia isolates (from Liverpool Hospital, Sydney, Australia) were selected for this study. BDM-I MICs were determined by the broth microdilution method (BMD) as described by the CLSI (Clinical Laboratory Standards Institute, Methods for Dilution Antimicrobial Susceptibility Tests for Bacteria That Grow Aerobically: Ninth Edition: Approved Standard M07-A9, CLSI, Wayne, Pa., USA, 2012) using CAMHB (Oxoid-Thermo Fisher, Hampshire, UK). BDM-I concentrations ranged from 1 to 10 mg/L in 1 mg/L increments. All isolates had previously undergone vancomycin MIC testing and hVISA/VISA characterization (van Hal, Barbagiannakos et al., 2011; van Hal, Jones et al., 2011). Statistical analysis to determine correlation between variables was completed using the Spearman's test; with P<0.05 considered significant. Calculations were completed using SPSS statistical software (version 22.0; SPSS Inc, Chicago, Ill., USA).
(§2) The BDM-I MICs for a collection of clinical MRSA isolates, with varying vancomycin susceptibilities, were determined using the BMD method.

[2] = tested on: VSSA MRSA isolates (n = 43); assay: MIC by BMD, MRSA isolates of VSSA phenotype; type: cell-based; conditions: Staphylococcus aureus, VSSA isolates (n = 43)
Description: as §1, §2

[3] = tested on: vanB VRE clinical isolates; assay: BDM-I and vancomycin checkerboard assay (broth microdilution, FICI); type: cell-based, Enterococcus faecium; conditions: vancomycin combined with BDM-I at fixed concentrations, vanB VRE isolate; FICI ≤0.5 indicates synergy
Plasmodium falciparum = conditions: literature report; cited from earlier work
[4] = tested on: many Gram-negative and most Gram-positive bacterial species as well as many fungal species; conditions: literature report; cited from earlier work
[5] = in vivo; cited from earlier work
[6] = tested on: Mycobacterium tuberculosis; conditions: literature report; cited from earlier work
chickens = conditions: in vivo; cited from earlier work
[7] = tested on: MRSA isolate Sa375 (VISA); assay: microbe, parasite or virus in culture; type: cell-based, Staphylococcus aureus; conditions: for MIC: Staphylococcus aureus
[8] = tested on: hVISA MRSA isolates (n = 54); assay: MIC by BMD, MRSA isolates of hVISA phenotype; type: cell-based; conditions: Staphylococcus aureus, hVISA isolates (n = 54)
Description: as §1, §2

[9] = tested on: MRSA bacteraemia isolates; assay: BDM-I MIC by broth microdilution (BMD), collection of clinical MRSA isolates; type: cell-based, Staphylococcus aureus; conditions: clinical MRSA isolates with varying vancomycin susceptibilities
Description: as §1, §2

mice = conditions: mouse, in vivo; cited from earlier work
[10] = tested on: vancomycin intermediate-resistant S. aureus (VISA); conditions: MRSA isolate reported in Japan in 1997 (VISA); cited from earlier work
[11] = tested on: hVISA MRSA isolates (n = 54); conditions: hVISA isolates (n = 54), BMD, previously determined; cited from earlier work
[12] = tested on: vancomycin-resistant S. aureus (VRSA) strain; conditions: first VRSA strain, United States 2002; cited from earlier work
[13] = tested on: VSSA MRSA isolates (n = 43); conditions: VSSA isolates (n = 43), BMD, previously determined; cited from earlier work
[14] = tested on: VISA MRSA isolates (n = 6); conditions: VISA isolates (n = 6), BMD, previously determined; cited from earlier work

C/C(=C\c1ccc2c(c1)OCO2)[N+](=O)[O-] [BDM-I, 3,4-methylenedioxy-β-methyl-β-nitrostyrene]
MIC50 ([1]; read-out: BDM-I MIC50): 1.25 µg/mL (≈ 6.03 µM) | MIC ([1]; read-out: BDM-I MIC (average)): 2.5 µg/mL (≈ 12.1 µM) | MIC50 ([2]; read-out: BDM-I MIC50): 1.71 µg/mL (≈ 8.25 µM) | MIC ([2]; read-out: BDM-I MIC (average)): 3.42 µg/mL (≈ 16.5 µM) | Interaction with vancomycin (checkerboard, FICI) [3]: synergistic activity | Activity against Plasmodium falciparum (Plasmodium falciparum): active | Antimicrobial spectrum [4]: broadly microbicidal | Absorption from the intestinal tract [5]: poorly absorbed | Activity against Mycobacterium tuberculosis [6]: active | Oral toxicity (chickens): low oral toxicity | BDM-I MIC increase ([7]; Sa375, day 110 vs start, 21 out of 21 colonies): 3 µg/mL | MIC ([7]; read-out: BDM-I MIC, Sa375 before passage in BDM-I): 2 µg/mL (≈ 9.65 µM) | MIC ([7]; read-out: BDM-I MIC, Sa375 day 110 colonies (21 out of 21)): 5 µg/mL (≈ 24.1 µM) | MIC50 ([8]; read-out: BDM-I MIC50): 1.64 µg/mL (≈ 7.92 µM) | MIC ([8]; read-out: BDM-I MIC (average)): 3.28 µg/mL (≈ 15.8 µM) | BDM-I MIC (range over isolates) [9]: 2 to 5 µg/mL | Oral toxicity (mice): low oral toxicity

CN[C@H](CC(C)C)C(=O)N[C@H]1C(=O)N[C@@H](CC(N)=O)C(=O)N[C@H]2C(=O)N[C@H]3C(=O)N[C@H](C(=O)N[C@H](C(=O)O)c4cc(O)cc(O)c4-c4cc3ccc4O)[C@H](O)c3ccc(c(Cl)c3)Oc3cc2cc(c3O[C@@H]2O[C@H](CO)[C@@H](O)[C@H](O)[C@H]2O[C@H]2C[C@](C)(N)[C@H](O)[C@H](C)O2)Oc2ccc(cc2Cl)[C@H]1O [Vancomycin]
vancomycin MIC [10]: 3 to 8 µg/mL | Vancomycin MIC50 [11]: 0.96 µg/mL | Vancomycin MIC (average) [11]: 1.92 µg/mL | vancomycin MIC [12]: greater than 100 μg/mL | Vancomycin MIC50 [13]: 0.58 µg/mL | Vancomycin MIC (average) [13]: 1.16 µg/mL | MIC ([7]; read-out: Vancomycin MIC): 4 µg/mL (≈ 2.76 µM) | Vancomycin MIC50 [14]: 1.1 µg/mL | Vancomycin MIC (average) [14]: 2.2 µg/mL
